Assay: Turbidity assay for solubility of the peptides
Assay type: physicochemical
Conditions: solubility of the antigenic peptides in water or Dimethyl Sulfoxide (DMSO)
Experimental: A number of antigenic peptides of the invention were synthesized by chemical synthesis as described in Section 5.1.1.
A turbidity assay was used to assess the solubility of the peptides. Turbidity assays used either a Varian Cary double-beam spectrophotometer, or a Molecular Devices Spectromax absorbance plate reader (for high throughput experiments). The spectrophotometer assay read every 2 nm between 340 nm and 360 nm, and averaged the values. Samples were analyzed in duplicate using a quartz micro-cuvette that holds about 200 uL. The plate reader assay used a 96-well plate format that read every 4 nm between 340 nm and 360 nm and averaged those values. Samples in this assay were run in triplicate.

CSCC[C@H](NC(=O)[C@H](CCCNC(=N)N)NC(=O)[C@H](Cc1c[nH]cn1)NC(=O)[C@@H](NC(=O)[C@H](CC(C)C)NC(=O)[C@H](CC(C)C)NC(=O)CNC(=O)[C@@H]1CCCN1C(=O)[C@H](CC(C)C)NC(=O)[C@H](CC(N)=O)NC(=O)[C@H](CCC(=O)O)NC(=O)[C@H](C)NC(=O)[C@H](CC(C)C)NC(=O)[C@H](CC(C)C)NC(=O)[C@H](C)NC(=O)[C@@H](NC(=O)[C@H](CCC(=O)O)NC(=O)[C@@H]1CCCN1C(=O)[C@@H](N)CC(C)C)[C@@H](C)O)C(C)C)C(=O)N[C@@H](C)C(=O)N[C@H](C(=O)N[C@@H](C)C(=O)N[C@@H](CC(C)C)C(=O)N1CCC[C@H]1C(=O)N[C@@H](CCC(=O)O)C(=O)N[C@H](C(=O)N1CCC[C@H]1C(=O)N[C@@H](CCC(=O)O)C(=O)N[C@@H](C)C(=O)N[C@@H](C)C(=O)N[C@@H](Cc1ccccc1)C(=O)N[C@@H](CCCNC(=N)N)C(=O)N[C@@H](CCC(=O)O)C(=O)N[C@@H](CCSC)C(=O)N[C@@H](CC(=O)O)C(=O)O)[C@@H](C)O)C(C)C [UL37-1]
Solubility: DMSO

CC[C@H](C)[C@H](NC(=O)[C@H](Cc1ccc(O)cc1)NC(=O)[C@H](C)NC(=O)[C@H](Cc1ccc(O)cc1)NC(=O)CNC(=O)[C@H](CC(C)C)NC(=O)[C@H](C)NC(=O)[C@H](CCCNC(=N)N)NC(=O)[C@H](CC(C)C)NC(=O)[C@@H](NC(=O)[C@H](CCCNC(=N)N)NC(=O)[C@@H](NC(=O)[C@H](CS)NC(=O)[C@H](Cc1ccccc1)NC(=O)[C@H](CC(C)C)NC(=O)[C@H](Cc1c[nH]cn1)NC(=O)[C@H](C)NC(=O)[C@H](CC(C)C)NC(=O)[C@H](CCCNC(=N)N)NC(=O)[C@H](CC(C)C)NC(=O)[C@H](C)NC(=O)[C@@H]1CCCN1C(=O)[C@H](CCCCN)NC(=O)[C@H](CO)NC(=O)[C@@H]1CCCN1C(=O)[C@H](C)NC(=O)CNC(=O)[C@H](CO)NC(=O)[C@@H]1CCCN1C(=O)[C@H](C)NC(=O)[C@H](C)N)[C@@H](C)CC)C(C)C)C(=O)N[C@@H](CC(N)=O)C(=O)N[C@@H](CO)C(=O)NCC(=O)N[C@@H](CCC(N)=O)C(=O)O [UL41-1]
Solubility: water

CC[C@H](C)[C@H](NC(=O)[C@H](CC(C)C)NC(=O)[C@H](CO)NC(=O)[C@@H](NC(=O)[C@@H](NC(=O)[C@H](Cc1ccc(O)cc1)NC(=O)[C@H](CCCCN)NC(=O)[C@@H](NC(=O)[C@H](Cc1ccc(O)cc1)NC(=O)[C@H](CCCNC(=N)N)NC(=O)[C@H](Cc1c[nH]cn1)NC(=O)[C@H](CCC(=O)O)NC(=O)[C@@H](NC(=O)[C@H](CC(C)C)NC(=O)[C@H](CCC(=O)O)NC(=O)[C@H](C)NC(=O)[C@@H](NC(=O)[C@@H](N)[C@@H](C)O)[C@@H](C)CC)C(C)C)C(C)C)C(C)C)[C@@H](C)CC)C(=O)N[C@@H](CO)C(=O)N1CCC[C@H]1C(=O)N[C@@H](CCCCN)C(=O)N[C@@H](CCC(=O)O)C(=O)N[C@@H](CCCNC(=N)N)C(=O)NCC(=O)N1CCC[C@H]1C(=O)N[C@@H](Cc1c[nH]c2ccccc12)C(=O)N[C@H](C(=O)N[C@@H](CC(C)C)C(=O)N[C@@H](CC(C)C)C(=O)N[C@@H](CCCCN)C(=O)N[C@@H](CCCNC(=N)N)C(=O)N[C@@H](CC(C)C)C(=O)N1CCC[C@H]1C(=O)N[C@H](C(=O)N[C@@H](Cc1ccc(O)cc1)C(=O)O)[C@@H](C)CC)[C@@H](C)O [UL41-2]
Solubility: water

CC[C@H](C)[C@H](NC(=O)[C@H](C)NC(=O)[C@H](CCC(=O)O)NC(=O)[C@H](CCCNC(=N)N)NC(=O)[C@H](CC(=O)O)NC(=O)[C@H](Cc1ccc(O)cc1)NC(=O)[C@H](CO)NC(=O)[C@@H]1CCCN1C(=O)[C@H](Cc1ccc(O)cc1)NC(=O)[C@H](CCCNC(=N)N)NC(=O)[C@H](CCCNC(=N)N)NC(=O)[C@H](CCC(N)=O)NC(=O)[C@H](Cc1ccc(O)cc1)NC(=O)[C@H](CCCCN)NC(=O)[C@@H](NC(=O)[C@@H](NC(=O)[C@H](CC(C)C)NC(=O)[C@@H](NC(=O)[C@H](Cc1ccc(O)cc1)NC(=O)[C@H](CCSC)NC(=O)[C@@H](NC(=O)[C@H](CC(N)=O)NC(=O)[C@H](Cc1c[nH]c2ccccc12)NC(=O)[C@H](CC(C)C)NC(=O)[C@H](CC(=O)O)NC(=O)[C@@H](NC(=O)[C@H](C)NC(=O)[C@@H](NC(=O)[C@@H]1CCCN1C(=O)[C@@H](NC(=O)[C@H](Cc1ccccc1)NC(=O)[C@H](Cc1ccc(O)cc1)NC(=O)CN)[C@@H](C)O)[C@@H](C)CC)C(C)C)C(C)C)[C@@H](C)O)C(C)C)C(C)C)C(=O)N[C@H](C(=O)N[C@@H](CC(C)C)C(=O)O)[C@@H](C)O [UL41-3]
Solubility: DMSO

CC(C)C[C@H](NC(=O)[C@H](CO)NC(=O)[C@@H]1CCCN1C(=O)[C@H](CC(=O)O)NC(=O)[C@H](CS)NC(=O)[C@H](CC(=O)O)NC(=O)CNC(=O)[C@H](C)NC(=O)[C@@H]1CCCN1C(=O)[C@@H](N)CC(=O)O)C(=O)N[C@@H](Cc1c[nH]cn1)C(=O)N[C@H](C(=O)N[C@@H](CC(C)C)C(=O)N[C@@H](CC(C)C)C(=O)N[C@@H](CCCNC(=N)N)C(=O)N1CCC[C@H]1C(=O)N[C@H](C(=O)N[C@@H](CC(C)C)C(=O)N[C@@H](CC(C)C)C(=O)N1CCC[C@H]1C(=O)N[C@@H](CCCCN)C(=O)N[C@@H](CC(C)C)C(=O)N[C@@H](CC(C)C)C(=O)N[C@H](C(=O)N[C@@H](CCCNC(=N)N)C(=O)N[C@@H](C)C(=O)N1CCC[C@H]1C(=O)N[C@@H](Cc1ccccc1)C(=O)N[C@@H](CCCCN)C(=O)N[C@@H](CO)C(=O)NCC(=O)N[C@@H](C)C(=O)N[C@@H](C)C(=O)N[C@@H](C)C(=O)N[C@@H](C)C(=O)O)C(C)C)[C@@H](C)O)C(C)C [UL46-1]
Solubility: water

CSCC[C@H](NC(=O)[C@H](Cc1c[nH]c2ccccc12)NC(=O)[C@H](CO)NC(=O)[C@H](C)NC(=O)[C@H](Cc1c[nH]c2ccccc12)NC(=O)[C@H](Cc1c[nH]cn1)NC(=O)[C@H](Cc1ccc(O)cc1)NC(=O)[C@H](CC(C)C)NC(=O)[C@@H](NC(=O)[C@H](CO)NC(=O)[C@@H](NC(=O)[C@H](Cc1ccc(O)cc1)NC(=O)[C@H](C)NC(=O)[C@H](CC(C)C)NC(=O)[C@H](CC(C)C)NC(=O)[C@H](CCC(=O)O)NC(=O)[C@H](CO)NC(=O)[C@H](CC(C)C)NC(=O)[C@H](CCCNC(=N)N)NC(=O)[C@H](CC(C)C)NC(=O)[C@H](C)NC(=O)[C@@H](NC(=O)[C@H](CC(=O)O)NC(=O)[C@@H](NC(=O)[C@H](CO)NC(=O)[C@@H]1CCCN1C(=O)[C@H](CCCNC(=N)N)NC(=O)[C@H](CO)NC(=O)[C@@H]1CCCN1C(=O)[C@H](CC(=O)O)NC(=O)[C@H](C)N)[C@@H](C)O)[C@@H](C)O)C(C)C)C(C)C)C(=O)N[C@@H](CC(C)C)C(=O)N[C@@H](Cc1c[nH]c2ccccc12)C(=O)N[C@H](C(=O)N[C@@H](C)C(=O)O)[C@@H](C)O [UL46-2]
Solubility: DMSO

CSCC[C@H](NC(=O)[C@@H]1CCCN1C(=O)CNC(=O)[C@H](C)NC(=O)CNC(=O)[C@H](CCCNC(=N)N)NC(=O)[C@H](CCCNC(=N)N)NC(=O)[C@@H](N)Cc1ccccc1)C(=O)N[C@@H](CCCNC(=N)N)C(=O)N[C@@H](C)C(=O)N[C@@H](CCCNC(=N)N)C(=O)N1CCC[C@H]1C(=O)N[C@@H](CCCNC(=N)N)C(=O)NCC(=O)N[C@@H](CCC(=O)O)C(=O)N[C@H](C(=O)N[C@@H](CCCNC(=N)N)C(=O)N[C@@H](Cc1ccccc1)C(=O)N[C@@H](CC(C)C)C(=O)N[C@@H](Cc1c[nH]cn1)C(=O)N[C@@H](Cc1ccc(O)cc1)C(=O)N[C@@H](CC(=O)O)C(=O)N[C@@H](CCC(=O)O)C(=O)N[C@@H](C)C(=O)NCC(=O)N[C@@H](Cc1ccc(O)cc1)C(=O)N[C@@H](C)C(=O)N[C@@H](CC(C)C)C(=O)N[C@@H](Cc1ccc(O)cc1)C(=O)N[C@@H](CCCNC(=N)N)C(=O)N[C@@H](CC(=O)O)C(=O)N[C@@H](CO)C(=O)N[C@@H](CO)C(=O)N[C@@H](CO)C(=O)N[C@@H](CC(=O)O)C(=O)O)C(C)C [UL49-1]
Solubility: water

CC(C)C[C@H](NC(=O)[C@H](CCCNC(=N)N)NC(=O)CNC(=O)[C@@H](NC(=O)[C@H](C)NC(=O)[C@H](C)NC(=O)[C@H](CS)NC(=O)[C@H](Cc1ccccc1)NC(=O)[C@@H](NC(=O)[C@H](CCCNC(=N)N)NC(=O)[C@H](CCCCN)NC(=O)[C@H](CC(N)=O)NC(=O)[C@H](Cc1ccccc1)NC(=O)CNC(=O)[C@H](C)NC(=O)[C@@H](NC(=O)[C@H](CCCNC(=N)N)NC(=O)[C@@H]1CCCN1C(=O)[C@@H](NC(=O)[C@H](Cc1c[nH]c2ccccc12)NC(=O)[C@@H]1CCCN1C(=O)[C@H](C)NC(=O)[C@@H](NC(=O)[C@@H]1CCCN1C(=O)[C@@H](N)CO)[C@@H](C)O)[C@@H](C)O)C(C)C)C(C)C)C(C)C)C(=O)N[C@@H](C)C(=O)N[C@@H](C)C(=O)N[C@H](C(=O)N[C@@H](Cc1c[nH]cn1)C(=O)N[C@@H](C)C(=O)N[C@@H](CCCNC(=N)N)C(=O)N[C@@H](CC(C)C)C(=O)N[C@@H](C)C(=O)N[C@@H](C)C(=O)N[C@H](C(=O)O)C(C)C)[C@@H](C)O [UL49-2]
Solubility: water

CC[C@H](C)[C@H](NC(=O)[C@@H](NC(=O)[C@@H]1CCCN1C(=O)[C@@H](N)CC(=O)O)[C@@H](C)CC)C(=O)NCC(=O)N[C@H](C(=O)N[C@@H](C)C(=O)N[C@@H](C)C(=O)N[C@@H](C)C(=O)N[C@H](C(=O)N[C@@H](CC(C)C)C(=O)N[C@@H](CCC(=O)O)C(=O)N[C@@H](CC(N)=O)C(=O)N[C@@H](CC(C)C)C(=O)N[C@@H](C)C(=O)N[C@H](C(=O)N[C@@H](CCCNC(=N)N)C(=O)N[C@@H](CC(C)C)C(=O)N[C@@H](CCCNC(=N)N)C(=O)N1CCC[C@H]1C(=O)N[C@@H](Cc1ccccc1)C(=O)N[C@@H](CC(C)C)C(=O)N[C@@H](CCC(N)=O)C(=O)N[C@@H](CS)C(=O)N[C@@H](Cc1ccc(O)cc1)C(=O)N[C@@H](CC(C)C)C(=O)N[C@@H](CCCCN)C(=O)N[C@@H](C)C(=O)N[C@@H](CCCNC(=N)N)C(=O)NCC(=O)N[C@@H](CC(C)C)C(=O)N[C@@H](CS)C(=O)NCC(=O)N[C@@H](CC(C)C)C(=O)N[C@@H](CC(=O)O)C(=O)O)[C@@H](C)O)C(C)C)[C@@H](C)O [UL54-1]
Solubility: water

From patent US8541002B2, “Vaccine for treatment and prevention of herpes simplex virus infection” (Agenus Inc., priority 2003, dated 2013)
